The values that follow come from PubChem BioAssay (NCI).

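Assay format: 96-well plates, 48-hour exposure. GI50 marks 50% less growth. TGI marks complete inhibition of growth.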

Among the test systems are BT-549 breast; CCRF-CEM leukemia; COLO 205 colon; DU-145 prostate; EKVX NSCLC; HT29 colon; NCI-H226 lung; OVCAR-8 ovarian; SF-295 CNS; SK-MEL-5 melanoma.
Experiment in all cases: DTP human tumour cell line panel, 48 h

As usually defined, the TGI is the concentration giving total growth inhibition. Consider `CNC(=O)OCc1nc(SC)n(C)c1COC(=O)NC`, for which the TGI with BT-549 breast came to 300 µM; in the experiment on CCRF-CEM leukemia it was 494 µM; in the experiment with COLO 205 colon, 295 µM; in the experiment on DU-145 prostate it was 379 µM; in the experiment on EKVX NSCLC, 492 µM; with HT29 colon it was 605 µM. Also, the total growth inhibition concentration (TGI) with NCI-H226 lung was determined as 400 µM; in the experiment on OVCAR-8 ovarian, 472 µM; in the experiment with SF-295 CNS it was 551 µM; in the experiment on SK-MEL-5 melanoma, 327 µM.

As usually defined, the GI50 is the concentration giving 50% growth inhibition. Take `O=[N+]([O-])/C=C/c1ccc(Cl)cc1[N+](=O)[O-]`: the GI50 in the experiment with BT-549 breast is 3.47 µM; with CCRF-CEM leukemia, 1.12 µM; with COLO 205 colon, 1.81 µM; with DU-145 prostate it was 2.52 µM; in the experiment with EKVX NSCLC, 13.1 µM; with NCI-H226 lung, 2.43 µM. In addition, the results for the GI50 with OVCAR-8 ovarian, with SF-295 CNS and in the experiment with SK-MEL-5 melanoma were 3.88 µM, 6.72 µM and 8.47 µM, respectively. Further, the TGI in the experiment on BT-549 breast came out at 10.2 µM; in the experiment with CCRF-CEM leukemia it was 8.85 µM; in the experiment on COLO 205 colon, 3.47 µM; with DU-145 prostate it was 5.49 µM; with EKVX NSCLC, 35.1 µM; in the experiment on NCI-H226 lung it was 6.96 µM. Moreover, the TGI in the experiment on OVCAR-8 ovarian is 13.6 µM; in the experiment with SF-295 CNS, 21.6 µM; with SK-MEL-5 melanoma, 21.5 µM.

As for `CSC1=Nc2c(c(C)c(-c3ccccc3)n2COC(CO)CO)C2=NC(=O)CC(C)N12` (configuration not stated), the GI50 in the experiment on BT-549 breast, in the experiment on CCRF-CEM leukemia, in the experiment on COLO 205 colon, with DU-145 prostate, in the experiment on EKVX NSCLC and in the experiment with HT29 colon was over 100 µM in each case. The GI50 with NCI-H226 lung, in the experiment on OVCAR-8 ovarian, in the experiment on SF-295 CNS and with SK-MEL-5 melanoma was over 100 µM throughout. For the same compound, the TGI in the experiment on BT-549 breast, with CCRF-CEM leukemia, in the experiment with COLO 205 colon, in the experiment on DU-145 prostate, in the experiment on EKVX NSCLC and in the experiment on HT29 colon was over 100 µM each time. Also, the TGI in the experiment on NCI-H226 lung, with OVCAR-8 ovarian, in the experiment with SF-295 CNS and in the experiment on SK-MEL-5 melanoma was over 100 µM in each case.

With `COc1ccc(/C=C/C(=O)c2cc3c(N)c(C(=O)Nc4ccc(OC)cc4)sc3nc2C)cc1`, the GI50 with BT-549 breast is 0.571 µM; in the experiment on CCRF-CEM leukemia it was 0.567 µM; in the experiment with COLO 205 colon it was 0.158 µM; in the experiment on DU-145 prostate it was 0.184 µM; with EKVX NSCLC it was 1.3 µM; with HT29 colon, 0.404 µM. The GI50 was 0.0872 µM in the experiment with NCI-H226 lung, 0.334 µM in the experiment on OVCAR-8 ovarian, 0.0645 µM with SF-295 CNS and 0.203 µM with SK-MEL-5 melanoma. The TGI is over 50 µM in the experiment on BT-549 breast; over 50 µM with CCRF-CEM leukemia; 0.609 µM with COLO 205 colon; 7.78 µM in the experiment on DU-145 prostate; over 50 µM in the experiment with EKVX NSCLC; over 28.4 µM in the experiment on HT29 colon. Further, the TGI in the experiment with OVCAR-8 ovarian was over 50 µM; in the experiment with SK-MEL-5 melanoma, 4.03 µM.

`O=c1[nH]cnc2n[nH]nc12`: the values for the GI50 in the experiment with BT-549 breast and in the experiment with DU-145 prostate were 2.65 µM and 2.89 µM, respectively. The total growth inhibition concentration (TGI) with BT-549 breast, in the experiment on CCRF-CEM leukemia, in the experiment on COLO 205 colon, with DU-145 prostate, in the experiment with EKVX NSCLC and in the experiment with HT29 colon was over 100 µM each time. Moreover, the TGI was over 66.1 µM in the experiment on NCI-H226 lung, over 100 µM in the experiment with OVCAR-8 ovarian, over 53.4 µM with SF-295 CNS and over 100 µM in the experiment on SK-MEL-5 melanoma.

As to `O=C1Nc2ccc3c(c2/C1=C\c1cc2c(cc1Br)OCO2)OCO3`, the GI50 with BT-549 breast is 0.71 µM; in the experiment on CCRF-CEM leukemia it was 0.244 µM; in the experiment on COLO 205 colon, 0.356 µM; in the experiment on DU-145 prostate, 0.49 µM; with EKVX NSCLC, 0.639 µM; in the experiment on NCI-H226 lung it was 1.38 µM. The GI50 in the experiment on OVCAR-8 ovarian was 0.855 µM; with SF-295 CNS, 0.527 µM; in the experiment with SK-MEL-5 melanoma it was 0.429 µM. In addition, the TGI in the experiment on BT-549 breast was 39.5 µM; in the experiment on CCRF-CEM leukemia it was 3.05 µM; in the experiment on COLO 205 colon, 2.66 µM; in the experiment with DU-145 prostate it was 2.11 µM; with EKVX NSCLC, 8.09 µM; with NCI-H226 lung, 5.35 µM. Besides, the TGI with OVCAR-8 ovarian was 4.87 µM; in the experiment on SF-295 CNS, 2.5 µM; in the experiment on SK-MEL-5 melanoma, 2.52 µM.

As for `COc1ccc(-c2csc(Nc3cccc(-c4csc(C)n4)c3)n2)cc1`, the GI50 with BT-549 breast is 8.2 µM; in the experiment with COLO 205 colon, 0.636 µM; in the experiment with DU-145 prostate it was 2.14 µM; with EKVX NSCLC, 3.63 µM; in the experiment with HT29 colon, 2.57 µM; in the experiment on NCI-H226 lung it was 6.12 µM. Further, the results for the GI50 with OVCAR-8 ovarian, with SF-295 CNS and in the experiment with SK-MEL-5 melanoma were 2.27 µM, 0.68 µM and 1.19 µM, respectively. Also, the concentration for total growth inhibition (TGI) is 40.3 µM in the experiment on BT-549 breast; over 26.1 µM in the experiment on COLO 205 colon; over 50 µM in the experiment on DU-145 prostate; over 50 µM in the experiment with EKVX NSCLC; over 50 µM in the experiment on HT29 colon; 19.7 µM in the experiment with NCI-H226 lung. The TGI in the experiment on OVCAR-8 ovarian is over 31.2 µM; in the experiment with SF-295 CNS, over 11.5 µM; with SK-MEL-5 melanoma, 7.85 µM.

Regarding `COc1ccc(-c2c(N)noc2-c2cc(OC)c3c(c2)OCCO3)cc1`, the GI50 in the experiment with BT-549 breast was 0.0285 µM; in the experiment with CCRF-CEM leukemia it was 0.0166 µM; in the experiment on COLO 205 colon, under 0.01 µM; in the experiment on DU-145 prostate it was 0.0202 µM; in the experiment on EKVX NSCLC, 0.046 µM; with HT29 colon it was under 0.01 µM. In addition, the concentration for 50% growth inhibition (GI50) in the experiment with OVCAR-8 ovarian was 0.0212 µM; in the experiment with SF-295 CNS it was under 0.01 µM; in the experiment on SK-MEL-5 melanoma, under 0.01 µM. The TGI in the experiment on BT-549 breast is 1.35 µM; with CCRF-CEM leukemia, 1.74 µM; in the experiment on COLO 205 colon, 0.0398 µM; in the experiment on DU-145 prostate, 0.193 µM; with EKVX NSCLC, over 100 µM; in the experiment on HT29 colon, 0.823 µM. The total growth inhibition concentration (TGI) in the experiment on OVCAR-8 ovarian was over 33.2 µM; in the experiment with SF-295 CNS, 22.3 µM; with SK-MEL-5 melanoma it was 0.176 µM.
